Reference: the supplement of paper PMC12463676, “Small-molecule dissolution of stress granules by redox modulation benefits ALS models” (Nature Chemical Biology, 2025)

How the values were obtained:
potassium arsenate = compound: O=[As]([O-])(O)O.[K+] [potassium arsenate]; experiment: thermal stability z-score vs DMSO; higher = more thermally stabilized by treatment; conditions: HeLa; arsenate concentration 1 mM
Procedure: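 Cellular thermal proteome profiling in HeLa cells treated with 1 mM arsenate for 1 h (DMSO pretreatment), heated to ten temperatures (37-66.3 °C). Soluble protein was quantified by TMT mass spectrometry relative to DMSO controls; the thermal stability score was transformed to a z-score; mean of n = 3 experiments.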

lipoamide = compound: NC(=O)CCCCC1CCSS1 [lipoamide]; experiment: as above; conditions: HeLa, lipoamide concentration 100 µM
Procedure: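 Cellular thermal proteome profiling in HeLa cells. Cells were treated with 100 µM lipoamide for 1 h, with or without 1 mM arsenate for a further 1 h, then heated to ten temperatures (37-66.3 °C), and soluble protein was quantified by TMT mass spectrometry relative to 0.1% DMSO controls. The thermal stability score (sum of log2 fold changes minus the abundance score) was transformed to a z-score; mean of n = 3 experiments.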

[1] = arsenate co-treatment: 1 mM arsenate 1 h
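Further: each temperature applied for 3 min, abundance score taken as mean log2 fold change at the two lowest temperatures, z-score obtained by mean subtraction and division by SD.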

UniProt Q96FZ7, sequence (Q96FZ7 whole entry): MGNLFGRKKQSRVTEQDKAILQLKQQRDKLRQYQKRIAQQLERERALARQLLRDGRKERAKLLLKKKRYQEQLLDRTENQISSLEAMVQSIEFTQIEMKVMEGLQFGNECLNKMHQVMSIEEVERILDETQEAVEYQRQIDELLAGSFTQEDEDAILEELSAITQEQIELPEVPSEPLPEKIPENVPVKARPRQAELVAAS
UniProt Q9H6T3, sequence (Q9H6T3 whole entry): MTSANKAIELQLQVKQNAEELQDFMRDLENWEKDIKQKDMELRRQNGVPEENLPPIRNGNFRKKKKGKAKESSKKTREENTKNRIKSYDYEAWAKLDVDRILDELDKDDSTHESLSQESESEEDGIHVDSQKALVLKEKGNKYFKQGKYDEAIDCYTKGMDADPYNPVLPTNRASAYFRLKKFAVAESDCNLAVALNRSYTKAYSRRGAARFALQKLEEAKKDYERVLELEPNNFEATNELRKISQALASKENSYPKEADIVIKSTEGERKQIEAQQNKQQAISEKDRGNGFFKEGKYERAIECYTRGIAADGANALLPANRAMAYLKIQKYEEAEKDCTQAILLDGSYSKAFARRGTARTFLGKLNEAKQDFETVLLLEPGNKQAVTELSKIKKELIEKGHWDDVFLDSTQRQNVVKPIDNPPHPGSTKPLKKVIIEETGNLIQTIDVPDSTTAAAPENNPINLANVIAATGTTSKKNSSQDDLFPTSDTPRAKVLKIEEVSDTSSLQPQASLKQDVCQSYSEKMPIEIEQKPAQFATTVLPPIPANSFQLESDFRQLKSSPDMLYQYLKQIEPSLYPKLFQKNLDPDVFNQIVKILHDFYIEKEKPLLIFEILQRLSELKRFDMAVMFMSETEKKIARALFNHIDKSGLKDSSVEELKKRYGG
UniProt Q9C0E2, sequence (Q9C0E2 whole entry): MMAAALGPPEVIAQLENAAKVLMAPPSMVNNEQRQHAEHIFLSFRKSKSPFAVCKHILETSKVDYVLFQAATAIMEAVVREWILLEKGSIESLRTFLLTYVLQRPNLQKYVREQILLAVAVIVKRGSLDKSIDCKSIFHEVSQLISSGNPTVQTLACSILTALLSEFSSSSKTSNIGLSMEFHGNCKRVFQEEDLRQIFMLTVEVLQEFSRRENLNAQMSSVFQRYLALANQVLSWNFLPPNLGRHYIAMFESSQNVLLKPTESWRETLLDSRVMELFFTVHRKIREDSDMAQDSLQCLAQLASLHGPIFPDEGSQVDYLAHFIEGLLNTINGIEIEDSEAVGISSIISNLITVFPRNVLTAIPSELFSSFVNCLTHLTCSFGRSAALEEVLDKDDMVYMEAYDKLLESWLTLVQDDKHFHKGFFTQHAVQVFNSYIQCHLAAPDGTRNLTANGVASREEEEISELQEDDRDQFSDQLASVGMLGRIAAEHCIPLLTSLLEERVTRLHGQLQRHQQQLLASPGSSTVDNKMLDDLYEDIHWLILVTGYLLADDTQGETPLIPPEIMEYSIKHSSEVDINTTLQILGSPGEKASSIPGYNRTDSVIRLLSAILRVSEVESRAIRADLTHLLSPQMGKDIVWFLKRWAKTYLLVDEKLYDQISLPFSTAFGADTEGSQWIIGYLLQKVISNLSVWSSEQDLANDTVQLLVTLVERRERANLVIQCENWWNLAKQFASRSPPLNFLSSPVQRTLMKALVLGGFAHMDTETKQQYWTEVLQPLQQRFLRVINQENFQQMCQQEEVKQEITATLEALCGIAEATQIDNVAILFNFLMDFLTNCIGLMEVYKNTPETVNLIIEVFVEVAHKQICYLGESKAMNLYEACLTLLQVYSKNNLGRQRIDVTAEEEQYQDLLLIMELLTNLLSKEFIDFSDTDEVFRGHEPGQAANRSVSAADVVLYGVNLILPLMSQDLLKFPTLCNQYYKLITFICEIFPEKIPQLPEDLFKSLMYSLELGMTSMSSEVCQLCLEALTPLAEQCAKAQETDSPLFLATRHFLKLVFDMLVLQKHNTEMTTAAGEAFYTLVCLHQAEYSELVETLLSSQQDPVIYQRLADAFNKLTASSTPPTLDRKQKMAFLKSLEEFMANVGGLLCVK
UniProt P29992, sequence (P29992 whole entry): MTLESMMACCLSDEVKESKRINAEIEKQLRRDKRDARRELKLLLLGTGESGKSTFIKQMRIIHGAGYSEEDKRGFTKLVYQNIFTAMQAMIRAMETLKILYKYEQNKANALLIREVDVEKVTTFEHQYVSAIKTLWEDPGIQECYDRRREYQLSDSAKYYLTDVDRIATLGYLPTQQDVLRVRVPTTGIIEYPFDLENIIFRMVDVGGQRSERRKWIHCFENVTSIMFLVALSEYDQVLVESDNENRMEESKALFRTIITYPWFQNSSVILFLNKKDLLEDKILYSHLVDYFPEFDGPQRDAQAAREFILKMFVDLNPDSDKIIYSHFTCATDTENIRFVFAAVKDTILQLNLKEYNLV
UniProt Q6NXT1, sequence (Q6NXT1 whole entry): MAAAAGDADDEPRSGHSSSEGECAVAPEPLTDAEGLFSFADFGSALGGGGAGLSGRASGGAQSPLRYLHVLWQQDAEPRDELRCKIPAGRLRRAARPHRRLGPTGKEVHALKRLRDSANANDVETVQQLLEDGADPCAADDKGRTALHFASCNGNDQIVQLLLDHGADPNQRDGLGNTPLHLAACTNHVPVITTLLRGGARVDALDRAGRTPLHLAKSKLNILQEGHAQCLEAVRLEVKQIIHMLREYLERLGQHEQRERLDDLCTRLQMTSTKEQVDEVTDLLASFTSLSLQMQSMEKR
UniProt P12270, sequence (P12270 whole entry): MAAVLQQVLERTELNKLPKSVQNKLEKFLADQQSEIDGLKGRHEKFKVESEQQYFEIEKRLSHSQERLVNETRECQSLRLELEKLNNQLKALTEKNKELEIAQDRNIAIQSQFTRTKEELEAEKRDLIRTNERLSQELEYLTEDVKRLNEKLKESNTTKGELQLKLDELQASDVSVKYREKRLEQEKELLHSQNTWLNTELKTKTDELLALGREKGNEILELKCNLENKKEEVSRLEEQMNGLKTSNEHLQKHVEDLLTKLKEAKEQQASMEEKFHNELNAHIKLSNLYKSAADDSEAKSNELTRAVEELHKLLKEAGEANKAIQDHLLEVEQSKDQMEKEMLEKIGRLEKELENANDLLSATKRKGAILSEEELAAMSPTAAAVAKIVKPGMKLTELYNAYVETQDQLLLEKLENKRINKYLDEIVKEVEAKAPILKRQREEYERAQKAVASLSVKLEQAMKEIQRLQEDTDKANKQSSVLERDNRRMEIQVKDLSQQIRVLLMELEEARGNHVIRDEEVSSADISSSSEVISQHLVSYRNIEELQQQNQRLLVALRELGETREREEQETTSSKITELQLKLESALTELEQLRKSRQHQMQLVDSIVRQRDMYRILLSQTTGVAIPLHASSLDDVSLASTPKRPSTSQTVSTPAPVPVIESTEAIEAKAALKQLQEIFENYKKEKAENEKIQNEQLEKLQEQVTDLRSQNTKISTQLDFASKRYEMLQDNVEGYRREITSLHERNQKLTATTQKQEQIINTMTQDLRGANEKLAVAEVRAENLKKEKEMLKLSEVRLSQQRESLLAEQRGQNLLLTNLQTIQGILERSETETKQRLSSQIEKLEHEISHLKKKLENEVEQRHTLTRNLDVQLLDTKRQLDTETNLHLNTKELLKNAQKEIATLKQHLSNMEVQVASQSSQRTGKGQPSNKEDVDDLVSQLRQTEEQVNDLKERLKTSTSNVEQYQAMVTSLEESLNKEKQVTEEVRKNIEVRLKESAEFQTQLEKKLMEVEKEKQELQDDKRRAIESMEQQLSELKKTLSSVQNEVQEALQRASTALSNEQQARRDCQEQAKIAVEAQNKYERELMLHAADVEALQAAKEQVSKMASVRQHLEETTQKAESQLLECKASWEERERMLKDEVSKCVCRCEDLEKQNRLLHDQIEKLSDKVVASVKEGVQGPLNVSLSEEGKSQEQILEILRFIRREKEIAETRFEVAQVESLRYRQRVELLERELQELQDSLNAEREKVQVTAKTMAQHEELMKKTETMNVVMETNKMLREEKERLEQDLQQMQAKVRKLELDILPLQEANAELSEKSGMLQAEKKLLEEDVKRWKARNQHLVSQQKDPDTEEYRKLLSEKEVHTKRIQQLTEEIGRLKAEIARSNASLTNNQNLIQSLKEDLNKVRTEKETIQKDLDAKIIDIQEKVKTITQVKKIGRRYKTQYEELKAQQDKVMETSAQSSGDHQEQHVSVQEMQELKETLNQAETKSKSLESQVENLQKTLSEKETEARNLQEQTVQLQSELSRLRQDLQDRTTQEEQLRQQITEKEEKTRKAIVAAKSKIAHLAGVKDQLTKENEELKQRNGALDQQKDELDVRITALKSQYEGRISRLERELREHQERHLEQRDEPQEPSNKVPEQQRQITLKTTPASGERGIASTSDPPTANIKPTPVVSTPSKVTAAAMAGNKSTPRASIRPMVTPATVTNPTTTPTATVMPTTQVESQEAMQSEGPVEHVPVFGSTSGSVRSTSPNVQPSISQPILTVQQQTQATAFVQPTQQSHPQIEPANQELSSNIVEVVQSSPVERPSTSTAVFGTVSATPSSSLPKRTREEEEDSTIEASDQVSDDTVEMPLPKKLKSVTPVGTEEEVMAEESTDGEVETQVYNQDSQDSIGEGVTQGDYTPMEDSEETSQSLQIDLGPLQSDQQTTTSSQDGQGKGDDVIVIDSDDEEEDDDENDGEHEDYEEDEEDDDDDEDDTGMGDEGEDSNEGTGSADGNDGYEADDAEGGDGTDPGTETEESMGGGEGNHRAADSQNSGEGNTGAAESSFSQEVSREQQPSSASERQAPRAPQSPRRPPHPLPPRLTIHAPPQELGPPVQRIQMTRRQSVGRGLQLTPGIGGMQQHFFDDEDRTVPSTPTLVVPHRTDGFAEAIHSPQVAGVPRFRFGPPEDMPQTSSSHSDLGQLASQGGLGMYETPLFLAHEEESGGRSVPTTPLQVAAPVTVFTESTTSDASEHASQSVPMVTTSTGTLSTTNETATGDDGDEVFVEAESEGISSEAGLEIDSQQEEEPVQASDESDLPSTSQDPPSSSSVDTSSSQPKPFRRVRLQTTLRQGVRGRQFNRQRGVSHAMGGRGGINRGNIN

Target | thermal stability z-score (potassium arsenate) | thermal stability z-score (lipoamide; [1]) | thermal stability z-score (lipoamide; arsenate co-treatment: none)
SRPK2 (UniProt P78362) | 0.168 | 0.467 | -0.365
PBK (UniProt Q96KB5) | 0.533 | -0.583 | -0.307
EPHA5 (UniProt P54756) | 0.746 | 0.8 | 0.338
PIN1 (UniProt Q13526) | 0.757 | 0.355 | 0.305
PAN3 (UniProt Q58A45) | -0.257 | -0.038 | 0.0344
VKORC1 (UniProt Q9BQB6) | 0.856 | -1.71 | -1.59
TSR1 (UniProt Q2NL82) | 0.334 | -0.39 | 0.00573
SRGAP1 (UniProt Q7Z6B7) | -0.0461 | -0.0604 | -0.163
MTUS1 (UniProt Q9ULD2) | 0.0626 | -0.0967 | 0.692
FHL2 (UniProt Q14192) | -6.31 | -1.64 | -0.905
HMGN5 (UniProt P82970) | -0.172 | -0.141 | -0.134
NXN (UniProt Q6DKJ4) | 0.314 | 0.0765 | 0.152
SNTB1 (UniProt Q13884) | 1.29 | -0.307 | 1.19
OSGEPL1 (UniProt Q9H4B0) | -0.494 | 0.0734 | -0.263
GNA11 (UniProt P29992) | -1.21 | 0.729 | 0.404
STAM2 (UniProt O75886) | 0.249 | 0.291 | -0.113
MAGT1 (UniProt Q9H0U3) | 0.251 | -3.45 | -2.9
RPAP3 (UniProt Q9H6T3) | 0.38 | -0.367 | -0.207
SBF1 (UniProt O95248) | -0.338 | -0.316 | 0.227
PNKD (UniProt Q8N490) | 0.929 | 0.175 | 0.758
ACP2 (UniProt P11117) | 0.375 | -0.226 | -0.57
ANKRD54 (UniProt Q6NXT1) | -0.49 | -0.042 | -0.267
TPR (UniProt P12270) | -2.19 | 2.13 | 1.1
RNF167 (UniProt Q9H6Y7) | 0.669 | -0.267 | -0.216
FBXO21 (UniProt O94952) | 0.0266 | -0.226 | -1.07
DIS3 (UniProt Q9Y2L1) | -1.52 | -0.727 | -0.422
RBBP4 (UniProt Q09028) | -0.0159 | 0.868 | 0.934
RNF114 (UniProt Q9Y508) | -1.6 | -0.534 | -0.407

Target | thermal stability z-score (potassium arsenate) | thermal stability z-score (lipoamide; [1]) | thermal stability z-score (lipoamide; arsenate co-treatment: none)
XPO4 (UniProt Q9C0E2) | -0.27 | -0.237 | -0.0735
CCDC47 (UniProt Q96A33) | -1.21 | -0.4 | -0.332
TXNRD1 (UniProt Q16881) | 4.21 | 1.24 | 1.25
PTTG1 (UniProt O95997) | -1.58 | -1.19 | -1.5
C9ORF78 (UniProt Q9NZ63) | 0.106 | 0.058 | 0.278
RABAC1 (UniProt Q9UI14) | -0.431 | 0.138 | -0.0907
CHMP6 (UniProt Q96FZ7) | 0.217 | 0.476 | 0.273
ARL13B (UniProt Q3SXY8) | -1.37 | -0.415 | -0.29
ADGRG2 (UniProt Q8IZP9) | -0.592 | -0.0216 | 0.386
TYW5 (UniProt A2RUC4) | 0.66 | 0.502 | 0.336
GDE1 (UniProt Q9NZC3) | -1.38 | -0.631 | -0.947
TMEM214 (UniProt Q6NUQ4) | -0.768 | -0.283 | -0.131
EGLN1 (UniProt Q9GZT9) | 1.64 | 0.176 | 0.423
MRPS10 (UniProt P82664) | -0.309 | -0.41 | -0.358
ASAH1 (UniProt Q13510) | 0.065 | -0.162 | -0.738
INTS7 (UniProt Q9NVH2) | -0.0595 | 0.874 | -0.103
HELZ (UniProt P42694) | -0.122 | -0.153 | -0.0553
PFKM (UniProt P08237) | -0.134 | 0.24 | 0.235
RAB2A (UniProt P61019) | 0.296 | 0.405 | 0.206
SCCPDH (UniProt Q8NBX0) | 0.139 | 0.163 | 0.0672
MADD (UniProt Q8WXG6) | 1.3 | 0.198 | 1.4
DTX2 (UniProt Q86UW9) | -0.381 | -0.228 | 0.0239
MOSPD1 (UniProt Q9UJG1) | -0.354 | -0.167 | -0.25
STX18 (UniProt Q9P2W9) | 0.066 | 0.00945 | 0.0404
DSCC1 (UniProt Q9BVC3) | -0.199 | 0.0551 | 0.0324
SKA1 (UniProt Q96BD8) | -0.0935 | -0.047 | 0.0119
SGTA (UniProt O43765) | 0.149 | 0.332 | 0.487
